These results are taken from publication PMC8231556, “Inhibiting Endothelial Cell Function in Normal and Tumor Angiogenesis Using BMP Type I Receptor Macrocyclic Kinase Inhibitors” (Cancers, 2021).

In experiment [1] the test system is VEGF-induced DLL4 and NR4 A1 mRNA expression. In words: RT-qPCR of VEGF-induced DLL4 and NR4A1 mRNA in HUVECs. The note with it: 0.5 µM compound, VEGF 40 ng/mL. It is filed as cell-based, human. How it is done:
(§1) EA.hy926 cells or HUVECs were seeded in 6-well plates and cultured until they reached 80% confluence. The medium was replaced with a serum-free medium for a 4 h starvation. For EA.hy926 cells, the compounds were added at a final concentration of 0.5 μM for 30 min, followed by BMP9 (1 ng/mL), TGF-β2 (1 ng/mL), or vehicle control addition and cultured for another 3 h before the cells were harvested. To investigate VEGF-induced cellular response, HUVECs were exposed to VEGF (40 ng/mL) for 1 h after 30 min pre-treatment with the compounds.
(§2) After samples were collected, total RNA was isolated and purified using the NucleoSpin RNA II kit (740955, BIOKE, Leiden, the Netherlands), following the manufacturer’s instructions. Then, the mRNA was used as a template to synthesize cDNA by performing reverse transcription with the RevertAid First Strand cDNA Synthesis Kit (K1621, ThermoFisher Scientific). Gene expression levels were determined by RT-qPCR analysis using the GoTaq qPCR Master Mix (A6001, Promega, Madison, WI, USA) and normalized to GAPDH expression. All the experiments were repeated three times, and results from three biologically independent experiments are shown.

Experiment [2] deals with HUVECs. Kind of experiment: Cord formation assay, HUVEC-eGFP co-cultured with human dermal fibroblasts. The note with it: for effect on VEGF-induced cord length, different concentrations: dose range; for effect on VEGF-induced EC cord formation: VEGF 15 ng/mL, 6 days, 0.5 µM (Sunitinib 1 μM). In kind it is cell-based. As to the method:
The cord formation assay was performed according to the IncuCyte Angiogenesis PrimeKit Assay protocol (Cell Player Angiogenesis PrimeKit, Essen BioScience). In brief, GFP labeled HUVEC cells and human dermal fibroblasts were mixed in a 1:20 ratio and seeded per well in a 96-well plate (3150 cells in total). Thereafter, the cells were exposed to VEGF alone or in combination with the compounds (at indicated concentrations) in a complete assay medium. Pictures were captured every 6 h for up to 9 days To monitor the cord formation. The medium was refreshed every 2 or 3 days. Cords formation was visualized by the GFP fluorescence, and cord length was quantified with the instrument’s software. All the experiments were repeated at least three times, and representative experiments are shown.

For experiment [3], the system named is HUVECs. Kind of experiment: Chemotactic invasion assay. It is filed as cell-based, human. As to conditions: 0.5 µM, towards full medium with 20% FBS. As to the method: The invasion potential of ECs was investigated using the chemotactic invasion assay, according to the IncuCyte instruction manual. Briefly, the top layer of an IncuCyte ClearView 96-well chemotaxis plate (4582, Essen Bioscience) was coated with 1% gelatin for 30 min. One thousand five hundred HUVEC cells/well were seeded on the gelatin-coated top plate and covered with 60 µL M199 medium with 1% FBS containing 0.5 µM of the indicated compounds or vehicle control (DMSO). Then 200 µL/well of M199 supplemented with 20% FBS, 100 IU/mL penicillin/streptomycin, 0.01 IU/mL Heparine, and BPE with 0.5 µM of the indicated compounds was added to the bottom plate. The plate was placed in the IncuCyte, and whole well images of both top and bottom membranes were captured every 4 h for one day using the IncuCyte Chemotaxis imaging protocol. Finally, the top and bottom cell areas were quantified with the instrument’s software using automated algorithms. The ECs invasive behavior was presented as total bottom cell area normalized to the initial top cell area. All the experiments were repeated at least three times, and representative results are shown.

The test system of experiment [4] is BMP9-induced SMAD1/5 phosphorylation. In words: Western blot of BMP9-induced SMAD1/5 phosphorylation in EA.hy926 cells. The note with it: Homo sapiens, EA.hy 926, BMP9 1 ng/mL, 1 h, read-out: IC50 on BMP9-induced pSMAD1/5 response. It is filed as cell-based. How it is done:
(§3) EA.hy926 cells or HUVECs were seeded in 6-well plates and starved in a serum-free medium for 4 h after reaching 80% confluence. The compounds were added 30 min prior to stimulation with the corresponding ligands. EA.hy926 cells were incubated with BMP9 (1 ng/mL), BMP6 (50 ng/mL), TGF-β2 (1 ng/mL), or vehicle control for 1 h. For HUVECs, after 4 h starvation, the cells were pre-treated with or without the indicated compounds for 30 min and subsequently stimulated with VEGF (40 ng/mL) for 10 min. The cells were harvested and lysed in radioimmunoprecipitation assay (RIPA) lysis buffer containing 1× complete protease inhibitor cocktail (11836153001, Roche, Basel, Switzerland). The protein concentration was determined using the DC protein assay kit (5000111, Bio-Rad). After adding loading buffer, the samples were boiled and proteins separated by sodium dodecyl sulfate polyacrylamide gel electrophoresis (SDS-PAGE). Proteins in the gel were transferred to polyvinylidene difluoride (PVDF) membranes (IPVH00010, Merck Millipore, Burlington, MA, USA) and immunoblotted with 1000 times diluted primary antibodies: phospho-SMAD1/5 (9516 S, Cell Signaling Technology, Leiden, The Netherlands), phospho-SMAD2 (pSMAD2, home-made), SMAD1 (6944 S, Cell Signaling Technology), SMAD2 (3103 S, Cell Signaling Technology), phospho-extracellular signal-regulated kinase/mitogen-activated protein kinase (pERK/MAPK, 4370, Cell Signaling Technology), mitogen-activated protein kinase/ERK1/2 (ERK1/2/MAPK, 9102 S, Cell Signaling Techonol), VEGFR (2479, Cell Signaling), pVEGFR (2478, Cell Signaling Technology), α/β-Tubulin (2148, Cell Signaling Technology), glyceraldehyde 3-phosphate dehydrogenase (GAPDH, MAB374, Merck Millipore). Clarity™ enhanced chemiluminescence (ECL) reagent (1705060, Bio-Rad) was used to visualize secondary antibodies conjugated to horseradish peroxidase (HRP). GAPDH or Tubulin was used as protein loading controls. […] The protein bands were quantified using ImageJ (National Institutes of Health, Bethesda, MD, USA).
For orientation: In western blotting, separated proteins are transferred to a membrane and probed.

Experiment [5] relates to BMP9-induced ID1, ID3, and SMAD6 mRNA expression. Kind of experiment: RT-qPCR of BMP9-induced ID1, ID3 and SMAD6 mRNA in EA.hy926 cells. It is filed as cell-based, human. As to conditions: 0.5 µM compound, BMP9 1 ng/mL. As to the method: as §1, §2
On the technique in general: Quantitative PCR measures a nucleic acid by following its amplification.

For experiment [6], the system named is BMP6-induced SMAD1/5 phosphorylation. In words: Western blot of BMP6-induced SMAD1/5 phosphorylation in EA.hy926 cells. In kind it is cell-based, human. The note with it: BMP6 50 ng/mL. How it is done:
EA.hy926 cells or HUVECs were seeded in 6-well plates and starved in a serum-free medium for 4 h after reaching 80% confluence. The compounds were added 30 min prior to stimulation with the corresponding ligands. EA.hy926 cells were incubated with BMP9 (1 ng/mL), BMP6 (50 ng/mL), TGF-β2 (1 ng/mL), or vehicle control for 1 h. For HUVECs, after 4 h starvation, the cells were pre-treated with or without the indicated compounds for 30 min and subsequently stimulated with VEGF (40 ng/mL) for 10 min. The cells were harvested and lysed in radioimmunoprecipitation assay (RIPA) lysis buffer containing 1× complete protease inhibitor cocktail (11836153001, Roche, Basel, Switzerland). The protein concentration was determined using the DC protein assay kit (5000111, Bio-Rad). After adding loading buffer, the samples were boiled and proteins separated by sodium dodecyl sulfate polyacrylamide gel electrophoresis (SDS-PAGE). Proteins in the gel were transferred to polyvinylidene difluoride (PVDF) membranes (IPVH00010, Merck Millipore, Burlington, MA, USA) and immunoblotted with 1000 times diluted primary antibodies: phospho-SMAD1/5 (9516 S, Cell Signaling Technology, Leiden, The Netherlands), phospho-SMAD2 (pSMAD2, home-made), SMAD1 (6944 S, Cell Signaling Technology), SMAD2 (3103 S, Cell Signaling Technology), phospho-extracellular signal-regulated kinase/mitogen-activated protein kinase (pERK/MAPK, 4370, Cell Signaling Technology), mitogen-activated protein kinase/ERK1/2 (ERK1/2/MAPK, 9102 S, Cell Signaling Techonol), VEGFR (2479, Cell Signaling), pVEGFR (2478, Cell Signaling Technology), α/β-Tubulin (2148, Cell Signaling Technology), glyceraldehyde 3-phosphate dehydrogenase (GAPDH, MAB374, Merck Millipore). Clarity™ enhanced chemiluminescence (ECL) reagent (1705060, Bio-Rad) was used to visualize secondary antibodies conjugated to horseradish peroxidase (HRP). GAPDH or Tubulin was used as protein loading controls. All the experiments were repeated at least three times, and representative experiments are shown. The protein bands were quantified using ImageJ (National Institutes of Health, Bethesda, MD, USA).

Experiment [7] deals with TGF-β2-induced SMAD2 phosphorylation. In words: Western blot of TGF-β2-induced SMAD2 phosphorylation in EA.hy926 cells. In kind it is cell-based, human. The note with it: TGF-β2 1 ng/mL. As to the method: as §3
In the next experiment the test system is EA.hy926 cells. In words: Proliferation assay (IncuCyte confluence). The note with it: 0.5 µM, 3 days. It is filed as cell-based, human. How it is done: Around 4 × 10^3 EA.hy926 cells per well were seeded in a 96-well microplate Essen ImageLock™ in 200 µL of culture medium containing the indicated concentrations of compounds and ligands, and the plate was directly inserted into the IncuCyte ZOOM instrument for scanning. Images of each well were acquired every 4 h for 3 days. The real-time cell confluence in each well was analyzed after normalizing to the initial cell density. All the experiments were repeated at least three times, and representative results are shown.

`CNC(=O)c1ccccc1Sc1ccc2c(/C=C/c3ccccn3)n[nH]c2c1` [Axitinib, reference compound]: in experiment [1], the “effect on VEGF-induced DLL4 mRNA expression” value is “inhibited” and the “effect on VEGF-induced NR4 A1 mRNA expression” value is “inhibited”. Moreover, in the experiment on HUVECs [2] (VEGF 20 ng/mL, 9 days), the “effect on VEGF-induced cord length, different concentrations” value (shortened to “effect … different concentrations”) was “potently inhibited”. Besides, in the experiment on HUVECs [3], the “effect on HUVEC chemotactic invasion” value is on record as “significantly compromised”.

As to `c1ccc2c(-c3cnn4cc(-c5ccc(N6CCNCC6)cc5)cnc34)ccnc2c1` [LDN-193189, reference compound], the IC50 in experiment [4] stood at 0.11 µM. The “effect on BMP9-induced ID1, ID3 and SMAD6 mRNA expression” value (“effect on BMP9-induced ID1” for short) in experiment [5] is given as “inhibited”. The “effect on BMP6-induced SMAD1/5 phosphorylation” value in experiment [6] (0.1 µM compound) is “efficiently inhibited”. Moreover, the “effect on TGF-β2-induced SMAD2 phosphorylation” value in experiment [7] (0.1 µM compound) is given as “effectively attenuated”. The “effect on EC proliferation (real-time confluence)” value (“effect on EC proliferation” for short) with EA.hy926 cells is “strongly inhibited”. In the experiment with HUVECs [2], the “effect on VEGF-induced EC cord formation” value was “no inhibitory effect and even slightly enhanced”. For the same compound, the “effect on HUVEC chemotactic invasion” value in the experiment with HUVECs [3] is recorded as “significantly compromised”.

In the case of `CN1CCc2cccc(c2)Nc2nccc(n2)N2CCCc3cc(ccc32)C1` [OD16], the IC50 in experiment [4] was 0.08 µM. In experiment [5], the “effect on BMP9-induced ID1” value is given as “inhibited”. Also, in experiment [6] (0.1 µM compound), the “effect on BMP6-induced SMAD1/5 phosphorylation” value is reported as “efficiently inhibited”. Further, in experiment [7] (dose range), the “effect on TGF-β2-induced SMAD2 phosphorylation” value is “in a dose-dependent manner but far less efficiently than LDN-193189”. Besides, in experiment [1], the “effect on VEGF-induced DLL4 mRNA expression” value is reported as “did inhibit”. The “effect on EC proliferation” value in the experiment with EA.hy926 cells is “LDN-193189 strongly inhibited ECs proliferation, unlike OD16 and OD29”. Further, the “effect on VEGF-induced EC cord formation” value with HUVECs [2] is recorded as “antagonized”. Further, the “effect on VEGF-induced cord formation at 0.5 μM” value in the experiment with HUVECs [2] (VEGF 20 ng/mL, 9 days, 0.5 μM) is listed as “apparent inhibitory effects”. The “effect … different concentrations” value in the experiment with HUVECs [2] (VEGF 20 ng/mL, 9 days) is “antagonized in a dose-dependent manner”. In addition, in the experiment on HUVECs [3], the “effect on HUVEC chemotactic invasion” value was “similarly blocked”.

For `CN1CCC(=O)NCCNc2ccn3ncc(c3n2)-c2cccc(c2)C1` [OD29], the IC50 in experiment [4] was 0.43 µM. Besides, the “effect on BMP9-induced ID1” value in experiment [5] was “inhibited”. Moreover, the “effect on BMP6-induced SMAD1/5 phosphorylation” value in experiment [6] (0.1 µM compound) is on record as “failed to antagonize”. Besides, the “effect on BMP6-induced SMAD1/5 phosphorylation” value in experiment [6] (1 µM compound) is “very weak inhibitory effect”. Further, in experiment [7] (dose range), the “effect on TGF-β2-induced SMAD2 phosphorylation” value is “nearly no inhibitory effect”. For the same compound, in experiment [1], the “effect on VEGF-induced DLL4 mRNA expression” value is on record as “inhibited” and the “effect on VEGF-induced NR4 A1 mRNA expression” value is “inhibited”. Moreover, in the experiment with EA.hy926 cells, the “effect on EC proliferation” value is “LDN-193189 strongly inhibited ECs proliferation, unlike OD16 and OD29”. In addition, the “effect on VEGF-induced EC cord formation” value in the experiment with HUVECs [2] is given as “antagonized”. Also, the “effect on VEGF-induced cord formation at 0.1 μM” value in the experiment with HUVECs [2] (VEGF 20 ng/mL, 9 days, 0.1 μM) is reported as “effectively attenuated”. For the same compound, the “effect … different concentrations” value with HUVECs [2] (VEGF 20 ng/mL, 9 days) is reported as “antagonized in a dose-dependent manner”. The “effect on HUVEC chemotactic invasion” value in the experiment on HUVECs [3] is “similarly blocked”.
